Measurements as given in patent US20240299553A1, “INDOCARBOCYANINE LIPID DERIVATIVES FOR IN VIVO CARGO DELIVERY” (priority 2021, published 2024).

Key:
[1] = system: 4T1 syngeneic orthotopic breast carcinoma; assay: Confocal microscopy of 4T1 tumor slices after i.v. injection of dual-labeled liposomes; format: in vivo, mice; conditions: 24 h post-injection; EPC/DSPE-PEG2000 liposomes, 0.2 mole % DiI and Cy5-DSPE, i.v.
Description: Lipids at the following molar ratios: HSPC/Chol/DSPE-PEG2000 (57/38/5) or EPC/DSPE-PEG2000 (95:5) with addition of 0.2% ICL and/or 0.2% FPL were mixed and dried under a nitrogen stream. The dry lipid cake was resuspended in PBS for a total lipid concentration of 20 mM, then incubated at 60° C. for 30 minutes. The solution was then vortexed for 2 minutes and bath sonicated. Liposomes were extruded by a syringe extruder (Avestin, Ottawa, Canada) through Whatman Nucleopore Track-Etch Membranes (200 nm pore size, 15 times). HSPC-based liposomes were extruded at 60° C., EPC-based liposomes were extruded at room temperature. Size and zeta potential were measured at room temperature in the presence of 1% phosphate-buffered saline using Zetasizer Nano (Malvern, UK). Liposomes were stored at 4° C. at a final concentration of 10 mM (total lipid) for a maximum period of 8 weeks before use.
4T1 cell line was purchased from the ATCC and verified using a sequencing core. GL261 cells were obtained from the National Cancer Institute (NCI), and CT2A cells were a gift from Dr. Tom Seyfried (Boston College). LY2 cells were from Dr. Sana Karam, University of Colorado Anschutz Medical campus. Cells were grown at 37° C. in RPMI 1640 medium containing 10% heat-inactivated fetal bovine serum, 10 mM HEPES, 100 U/ml penicillin, and […] streptomycin (all from Corning Inc. New York, NY, USA). BALB/c mice were bred in-house. Mice of 8-10 weeks of age (females) were implanted with 0.5×10^6 cells into the mammary fat pad (4T1) or subcutaneously in the jaw region (LY2) and used for experiments 1 week later when tumors reached ˜200-300 mm^3. For brain tumors, C57BL/6 mice (6-8 weeks old) were implanted with a total 1×10^5 GL261 or CT-2A cells per animal using an established protocol. To determine the distribution of liposomes in tumors and organs, liposomes were injected with 50 μl of 10 mM total lipid intravenously. Blood was collected via periorbital plexus using heparin glass capillaries, and the plasma was separated by centrifugation at 500 g for 5 min. In some experiments, mice were preinjected before dissection with 50 μl of FITC-tomato lectin (1 mg/ml) and 50 μl Hoechst 33324 (2 mg/ml) to visualize the vasculature and the nuclei. Mice were sacrificed with carbon dioxide, followed by cardiac perfusion with PBS through the left ventricle.
Nikon Eclipse AR1HD inverted confocal microscope with 405 nm, 488 nm, 561 nm, and 640 nm excitation lasers and corresponding emission filters was used. For high magnification imaging, liposomes were diluted 1:200 in PBS, mixed with glycerol at 1:1 ratio and 2 μl were placed on slide. For liposomes in plasma, the samples were diluted 1:20 and mixed with glycerol. The preparations in glycerol were spread under a coverslip and imaged under Apo60 or Apo100 Oil objective at 2048×2048 resolution. For tumor imaging, tumors or whole brains were frozen on dry ice and sliced with a blade into 1-2 mm thick slices. The slices were placed on a glass slide and imaged using Plan Apo 10 objective. Channels' voltage and laser intensity were adjusted using the dual labeled liposomes placed on a slide and imaged under the same magnification. These parameters were calibrated before each imaging session using the batch of liposomes used in that experiment. For quantification, multiple random image areas from different slices of the tumor (both periphery and center) were acquired at 512×512 resolution. Images were quantified with Fiji using customized macros. Briefly, 8-bit gray image stacks were thresholded for fluorescence in the Cy3 and Cy5 channels and the percentages of binary (positive) areas were calculated using the “Measure” function. All the data were plotted with Prism version 8.3.0 (GraphPad, San Diego, CA).

[2] = Lipid extraction of tumors and organs, dye biodistribution; format: in vivo, mice; conditions: 48 h post-injection
Description: For extraction using a modified Bligh-Dyer method, 50-100 mg tissue was homogenized as described above, 10 parts of chloroform/methanol (2:1) were added to the homogenate (considering that tissue weight is 1 part), and the samples were mixed at 1400 rpm for 2 h at room temperature on Eppendorf Thermomixer. The tubes were centrifuged at 500 g for 10 min. The organic phase (bottom, approximately 80% of the added amount) was carefully collected, dotted on a PVDF membrane and scanned for DiI and Cy5 fluorescence as described above. Different dilutions of liposomes (standard curve) were scanned together with the samples. The percentage of the injected DiI and Cy5 in the extract was calculated from the standard curve and divided by tissue weight. The fluorescence of control non-injected organs was subtracted from that of injected organs. For TLC analysis, the mobile phase consisted of chloroform: methanol (9:1) with 1% trifluoroacetic acid and the samples were run on TLC Silica Gel 60 F254 plates (EMD Millipore).

[3] = Incubation of liposomes in liver homogenates, fluorescence ratio and TLC; format: in vitro ADME, BALB/c mice; conditions: 24 h and 48 h incubation
Description: Liposomes were incubated at 2 mM in 80% mouse serum, PBS or 1% Tween/PBS for different times at 37° C. Following incubation, the samples were dotted on a nitrocellulose membrane and scanned at Cy3 and Cy5 wavelengths. Alternatively, to measure the release in serum, the samples were diluted after incubation 10-fold in PBS and ultracentrifuged at 80,000 rpm for 30 min, 4° C. using TLA-100.3 rotor of Beckman Optima ultracentrifuge. The supernatant in serum, liposomes in whole serum, and liposomes in PBS were dotted and scanned at Cy3 and Cy5 wavelengths with a Bio-Rad camera imager using Cy3 and Cy5 filters. The mean fluorescence of the dots was determined and used to calculate the percentage of release in serum. To measure the effect of tissue on DiI/Cy5 fluorescence ratio, livers from BALB/c mice were homogenized for 5 min in PBS (1:2 weight: volume ratio) using BioSpec Mini BeadBeater-16 tissue homogenizer with 1-2 zirconium beads added per tube. […]
For extraction using a modified Bligh-Dyer method, 50-100 mg tissue was homogenized as described above, 10 parts of chloroform/methanol (2:1) were added to the homogenate (considering that tissue weight is 1 part), and the samples were mixed at 1400 rpm for 2 h at room temperature on Eppendorf Thermomixer. […] The percentage of the injected DiI and Cy5 in the extract was calculated from the standard curve and divided by tissue weight. […]

For `CCCCCCCCCCCCCCCCCC(=O)OC[C@H](COP(=O)(O)OCCNC(=O)CCCCCN1C(=CC=CC=CC2=[N+](C)c3ccccc3C2(C)C)C(C)(C)c2ccccc21)OC(=O)CCCCCCCCCCCCCCCCC` [Cy5-DSPE], which “extravasation and distribution in tumor” value [1] is on record?
The value was “mostly confined to blood vessels”.

And the “tissues with the highest dye amount” value [2]?
Its value is “highest in the tumor and kidney”.

And the “dye amount in tumor and organ extracts over time” value ([2]; tumors, livers, spleens, kidneys, 1 h, 24 h)?
Its value is “dropped over time in all the organs”.

And the “TLC of extracts of liver homogenates” value [3]?
The value was “appearance of degradation products”.
